Consider 4 compounds from patent EP3578559B1, “DYE FOR FLUORESCENT STAINING OF STRATUM CORNEUM, MANNER OF ITS SYNTHESIS AND APPLICATION IN MICROSCOPY, INCLUDING IDENTIFICATION OF ROUTES OF SUBSTANCES PENETRATION TO THE SKIN AND ASSESSMENT OF STRUCTURAL DISORDERS OF THIS LAYER” (Gdanski Uniwersytet Medyczny, priority 2018, dated 2019).

As usually defined, the logP is a log measure of how a compound divides between an organic and an aqueous phase. Lower therefore signals a more hydrophilic compound.

“Also recorded” adds a separate entry of the source. Where two headings read alike, the source gives them in different places.

One data set concerns stratum corneum. Description: Fluorescent microscopy staining of stratum corneum of human skin ex vivo. Here is the method:
To obtain microscopic images of stratum corneum in a fluorescent microscope (Nikon Eclipse 50, Japan; the mercury lamp; the filter for wavelength: 330-380 nm; software for data acquisition NIS Elements AR 3.2.) Standard methodology was applied. A fragment of human skin ex vivo (1 cm x 1 cm) was subject to heat separation procedure (temperature 60 °C; 30 seconds) in order to separate epidermis (including stratum corneum) from the dermis. Fragments of the epidermis were placed on a microscopic glass, fluorescent dyes were applied and then incubated in thermostat for 10 minutes at 37 °C. After this time, the excess of dyes was removed by the use of laboratory absorption blotting paper and images of microscopic magnification were recorded in 10 x magnification of the lens, using the exposure time of 15-600 ms.

The nature of data set [1]: Octanol/water partition coefficient (logP), experimentally assigned. The settings on record: for octanol/water division ratio: ratio of concentrations of the dye in octanol/water.
For data set [2] the following is noted: commercial dye; cited from earlier work.
The nature of data set [3]: Fluorescence optical properties of the dye (Stokes shift, absorption/emission). In kind it is physicochemical.
Where [4] appears, read: post application of water / hydrophilic compounds, 10x.

Consider `CCCCCCOC(=O)c1ccccc1-c1c2ccc(=[N+](CC)CC)cc-2oc2cc(N(CC)CC)ccc12` [RBHE, Rhodamine hexylester], for which the “microscope image quality of stained structures” value with stratum corneum (after application of siloxane with a cyclic structure, compared with SAFQ8MeAKT, 10x) was “not as explicit”. Besides, the staining of canyons result is recorded as “does not stain canyons so vividly” with stratum corneum (lipophilic compounds (siloxane D4), 10x) and “canyons are not visible; also recorded: does not dye canyons” with stratum corneum (setting [4]).
Turning to `CC[N+]1(CC)CN2C(=N1)C(C(=O)[O-])=Cc1ccccc12` [P4], the logP in the data set “physchem” is -1.9. In data set [1], the octanol/water division ratio is given as 0,01. For the same compound, in the data set on stratum corneum (on the basis of the conducted research), the “characterization of hydrophilicity/lipophilicity with regard to diffusion to stratum corneum” value is reported as “too hydrophilic”. Also, in the data set with stratum corneum (stratum corneum structures), the “staining of the lipids inside the lipid matrix or corneocytes proteins” value is recorded as “lack of staining”.
For the compound `CCN(CC)c1ccc2c(-c3ccc(S(=O)(=O)O)cc3S(=O)(=O)[O-])c3ccc(=[N+](CC)CC)cc-3oc2c1` [SRB, Sulforhodamines B], in data set [2], the characteristic absorption is reported as 565 nm and the characteristic emission is 590 nm. Moreover, in the data set with stratum corneum (10x), the staining of corneocytes result is listed as “noticeably stains corneocytes”. Also, the staining of canyons entry in the data set with stratum corneum (dye alone (Fig. 11), 10x) is recorded as “does not dye the canyons”.
Consider `CC[N+]1(CC)CN2C(=N1)C(C(=O)ON1C(=O)CCC1=O)=Cc1ccc(C)cc12.[Cl-]` [SAFQ8MeAKT, 4-((2,5-dioxopyrrolidin-1-yloxy)carbonyl)-2,2-diethyl-8-methyl-1,2-dihydro-[1,2,4]triazolo[4,3-a]quinolin-2-ium chloride], for which the log partition coefficient (logP) in the data set “physchem” was -0.43. In addition, in data set [3], the Stokes shift stood at 95 nm, the characteristic absorption is 365 nm and the characteristic emission stood at 460 nm. In addition, the octanol/water division ratio in data set [1] is recorded as 0,37. Moreover, the “greater lipophilicity than P4 dye” value in data set [1] (relative to P4 dye) is “approx. 40 times”. For the same compound, the staining of corneocytes result in the data set on stratum corneum (10x) is “staining of the inside of corneocytes”. In the data set on stratum corneum (setting [4]), the staining of canyons result is listed as “canyons are stained”.
